The values below come from patent publication US12577228B2, “Dihydrocyclopenta-isoquinoline-sulfonamide derivatives compounds” (UCB Biopharma SRL, priority 2019, dated 2026).

The target in the assay is T1, IgE-Tb / soluble IgE receptor FcεRIα with a Y131A mutation (Homo sapiens, UniProt P01854, N146Q/N252Q).
T1 construct: fused on or other part: Terbium chelate (LanthaScreen amine-reactive) on IgE-Fc; Alexa Fluor 488 hydrazide on the oxidised glycans of sFcεRIα; Both are labels and no part of the key
Nature of the assay: in vitro FRET assay: binding of IgE-Tb to receptor FcεRIα-Y131A-AF488 and its inhibition by compounds. As to conditions: 5 nM IgE-Tb, 25 nM FcεRIα-Y131A-AF488, 2 hours at room temperature; read-out: FRET IC50 range.

The term IC50 denotes the concentration needed to halve the response being measured.

T1 sequence (P01854 104-427 N146Q/N252Q): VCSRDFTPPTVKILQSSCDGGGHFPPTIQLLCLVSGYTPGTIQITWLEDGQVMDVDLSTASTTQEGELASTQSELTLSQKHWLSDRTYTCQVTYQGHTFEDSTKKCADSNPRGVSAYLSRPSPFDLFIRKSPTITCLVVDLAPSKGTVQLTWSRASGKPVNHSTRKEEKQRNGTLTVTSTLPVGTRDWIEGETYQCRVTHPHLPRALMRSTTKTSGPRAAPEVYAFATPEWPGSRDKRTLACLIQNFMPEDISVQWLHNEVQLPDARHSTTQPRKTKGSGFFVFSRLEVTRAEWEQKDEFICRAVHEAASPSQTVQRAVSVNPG
T1 sequence (P12319 26-201 Y156A partner): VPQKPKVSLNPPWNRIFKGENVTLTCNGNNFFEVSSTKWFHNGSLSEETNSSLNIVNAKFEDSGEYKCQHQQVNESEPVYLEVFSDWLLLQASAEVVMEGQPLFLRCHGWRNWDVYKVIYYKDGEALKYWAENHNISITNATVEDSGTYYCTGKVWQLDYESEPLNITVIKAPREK

On to `Cn1ncc(NC2Cc3cc4c(F)nc(C5CC5)cc4c(S(=O)(=O)NCC(C)(C)F)c3C2)cc1=O` (stereo not shown) [Example 29, 3-cyclopropyl-1-fluoro-N-(2-fluoro-2-methyl-propyl)-7-[(1-methyl-6-oxo-pyridazin-4-yl)amino]-7,8-dihydro-6H-cyclopenta[g]isoquinoline-5-sulfonamide], for which the IC50 lay within 10 to 50 nM. For `CC(C)(F)CNS(=O)(=O)c1c2c(cc3cnc(C4CC4)cc13)C[C@@H](Nc1cnc(C3(O)COC3)nc1)C2` [Example 30, (7R)-3-cyclopropyl-N-(2-fluoro-2-methylpropyl)-7-[[2-(3-hydroxyoxetan-3-yl)pyrimidin-5-yl]amino]-7,8-dihydro-6H-cyclopenta[g]isoquinoline-5-sulfonamide] the value was 10 to 50 nM; for `Cc1nc(-c2ccc(N[C@@H]3Cc4cc5cnc(C6CC6)cc5c(S(=O)(=O)NCC(C)(C)F)c4C3)cn2)no1` [Example 31, (7R)-3-cyclopropyl-N-(2-fluoro-2-methylpropyl)-7-[[6-(5-methyl-1,2,4-oxadiazol-3-yl)pyridin-3-yl]amino]-7,8-dihydro-6H-cyclopenta[g]isoquinoline-5-sulfonamide], 1 to 10 nM; for `CC(C)(F)CNS(=O)(=O)c1c2c(cc3cnc(C4CC4)cc13)C[C@@H](Nc1ccc(Cl)nc1)C2` [Example 32, (7R)-7-[(6-chloropyridin-3-yl)amino]-3-cyclopropyl-N-(2-fluoro-2-methylpropyl)-7,8-dihydro-6H-cyclopenta[g]isoquinoline-5-sulfonamide], 10 to 50 nM. For `Cc1ccc2c(C(=O)N[C@@H]3Cc4cc5cnc(C6CC6)cc5c(S(=O)(=O)NCC(C)(C)F)c4C3)c[nH]c2c1` [Example 33, N-[(7R)-3-cyclopropyl-5-[(2-fluoro-2-methylpropyl)sulfamoyl]-7,8-dihydro-6H-cyclopenta[g]isoquinolin-7-yl]-6-methyl-1H-indole-3-carboxamide] the value was 10 to 50 nM.

As for `CC(C)(F)CNS(=O)(=O)c1c2c(cc3cnc(C4CC4)cc13)C[C@@H](NC(=O)c1ccc3[nH]nnc3c1)C2` [Example 34, N-[(7R)-3-cyclopropyl-5-[(2-fluoro-2-methylpropyl)sulfamoyl]-7,8-dihydro-6H-cyclopenta[g]isoquinolin-7-yl]-1H-benzotriazole-5-carboxamide], the IC50 lay within 10 to 50 nM. Under `CC(C)(F)CNS(=O)(=O)c1c2c(cc3cnc(C4CC4)cc13)CC(Nc1ccc(S(C)(=N)=O)nc1)C2` (stereo not shown) [Example 35, 3-cyclopropyl-N-(2-fluoro-2-methylpropyl)-7-[[6-(methylsulfonimidoyl)pyridin-3-yl]amino]-7,8-dihydro-6H-cyclopenta[g]isoquinoline-5-sulfonamide] stands 10 to 50 nM; under `Cc1noc(-c2ccc(N[C@@H]3Cc4cc5cnc(C6CC6)cc5c(S(=O)(=O)NCC(C)(C)F)c4C3)cn2)n1` [Example 36, (7R)-3-cyclopropyl-N-(2-fluoro-2-methylpropyl)-7-[[6-(3-methyl-1,2,4-oxadiazol-5-yl)pyridin-3-yl]amino]-7,8-dihydro-6H-cyclopenta[g]isoquinoline-5-sulfonamide], 1 to 10 nM; under `Cc1nnc(-c2ccc(N[C@@H]3Cc4cc5cnc(C6CC6)cc5c(S(=O)(=O)NCC(C)(C)F)c4C3)cn2)o1` [Example 37, (7R)-3-cyclopropyl-N-(2-fluoro-2-methylpropyl)-7-[[6-(5-methyl-1,3,4-oxadiazol-2-yl)pyridin-3-yl]amino]-7,8-dihydro-6H-cyclopenta[g]isoquinoline-5-sulfonamide], 1 to 10 nM. On to `CC(C)(F)CNS(=O)(=O)c1c2c(cc3cnc(C4CC4)cc13)C[C@@H](Nc1ccc(C3(O)COC3)nc1)C2` [Example 38, (7R)-3-cyclopropyl-N-(2-fluoro-2-methylpropyl)-7-[[6-(3-hydroxyoxetan-3-yl)pyridin-3-yl]amino]-7,8-dihydro-6H-cyclopenta[g]isoquinoline-5-sulfonamide], for which the IC50 was 10 to 50 nM.
